Test results as given in ChEMBL document CHEMBL4808169, “Discovery of Potent and Fast-Acting Antimalarial Bis-1,2,4-triazines” (J Med Chem, 2021).

Experiments:
Plasmodium = test: Antimalarial activity against Plasmodium assessed as transmission blocking potential by measuring reduction in male gamete formation by dual gamete formation assay; assay type: functional, organism-based
[1] = Drug metabolism in rat liver microsomes assessed as formation of cleavage product M-69 by LC-MS/MS(CID) analysis; assay type: ADME, Microsome
[2] = Oral bioavailability in Swiss mouse at 2.8 mg/kg measured up to 24 hrs; assay type: ADME, organism-based; conditions: in vivo
[3] = Protein binding in rat plasma measured after 6 hrs by LC-MS analysis based equilibrium dialysis method; assay type: ADME, cell-free; conditions: read-out: PPB (converted)
[4] = Intrinsic clearance in mouse liver microsomes in presence of NADPH by UPLC-MS analysis; assay type: ADME, Microsome
[5] = Tmax in Swiss mouse at 27 mg/kg, po measured up to 24 hrs by LC-MS analysis; assay type: ADME, organism-based; conditions: in vivo
[6] = AUC (0 to infinity) in Swiss mouse plasma at 2.7 mg/kg, iv measured up to 24 hrs; assay type: ADME, organism-based; parameters: route intravenous, dose 2.7 mg/kg, time <=24
[7] = Drug metabolism in rat hepatocytes assessed as oxygenated metabolite N-methyl-2-(3'-propoxy-5,5'-bi(1,2,4-triazin)-3-yloxy)ethanamine oxide formation by LC-MS/MS(CID) analysis; assay type: ADME, cell-based, Hepatocyte
[8] = Oral availability in Sprague-Dawley rat at 10 mg/kg measured up to 24 hrs by LC-MS analysis; assay type: ADME, organism-based; conditions: in vivo
[9] = Metabolic stability of compound in Swiss mouse blood assessed as parent compound loss measured over 4 hrs by LC-MS analysis; assay type: ADME, tissue-based; conditions: whole blood, read-out: Drug degradation
[10] = Drug metabolism in rat liver microsomes assessed as oxygenated metabolite M+16(2) formation by LC-MS/MS(CID) analysis; assay type: ADME, Microsome
[11] = Drug metabolism in mouse liver microsomes assessed as oxygenated metabolite N-methyl-2-(3'-propoxy-5,5'-bi(1,2,4-triazin)-3-yloxy)ethanamine oxide formation by LC-MS/MS(CID) analysis; assay type: ADME, Microsome
[12] = Apparent blood clearance in Sprague-Dawley rat at 3 mg/kg, iv measured up to 24 hrs by LC-MS analysis; assay type: ADME, organism-based; conditions: read-out: CL(app)
[13] = Drug metabolism in human liver microsomes assessed as oxygenated metabolite N-methyl-2-(3'-propoxy-5,5'-bi(1,2,4-triazin)-3-yloxy)ethanamine oxide formation by LC-MS/MS(CID) analysis; assay type: ADME, Microsome
[14] = Drug metabolism in rat liver microsomes assessed as 3'-propoxy-5,5'-bi(1,2,4-triazin)-3-ol formation by LC-MS/MS(CID) analysis; assay type: ADME, Microsome
[15] = Drug metabolism in Sprague-Dawley rat urine assessed as oxygenated metabolite N-methyl-2-(3'-propoxy-5,5'-bi(1,2,4-triazin)-3-yloxy)ethanamine oxide formation at 3 mg/kg, iv by high-resolution mass spectrometry; assay type: ADME, organism-based; conditions: in vivo
[16] = Drug concentration in blood of NOD-SCID 1L2Rgamma mouse infected with Plasmodium falciparum 3D70087/N9 at 50 mg/kg, po measured after 6 hrs by LC-MS/MS analysis; assay type: ADME, organism-based; conditions: read-out: Drug uptake
[17] = AUC (0 to infinity) in Swiss mouse plasma at 27 mg/kg, po measured up to 24 hrs by LC-MS analysis
[18] = Drug metabolism in mouse hepatocytes assessed as glucuronides/sulfates metabolite formation by LC-MS/MS(CID) analysis; assay type: ADME, cell-based, Hepatocyte
[19] = Clearance in Swiss mouse plasma at 2.7 mg/kg, iv measured up to 24 hrs by LC-MS analysis; assay type: ADME, organism-based
[20] = Drug metabolism in mouse hepatocytes assessed as oxygenated metabolite M+16(1) formation by LC-MS/MS(CID) analysis; assay type: ADME, cell-based, Hepatocyte
[21] = Drug metabolism in mouse liver microsomes assessed as formation of cleavage product M-69 by LC-MS/MS(CID) analysis; assay type: ADME, Microsome
[22] = Drug metabolism in human liver microsomes assessed as oxygenated metabolite M+16(2) formation by LC-MS/MS(CID) analysis; assay type: ADME, Microsome
[23] = Intrinsic clearance in human hepatocytes assessed per million cells by UPLC-MS analysis; assay type: ADME, cell-based, Hepatocyte; conditions: read-out: CLH
[24] = Drug metabolism in rat hepatocytes assessed as glucuronides/sulfates metabolite formation by LC-MS/MS(CID) analysis; assay type: ADME, cell-based, Hepatocyte
[25] = Tmax in Swiss mouse at 2.8 mg/kg, po measured up to 24 hrs by LC-MS analysis; assay type: ADME, organism-based; conditions: in vivo
[26] = Drug metabolism in human hepatocytes assessed as oxygenated metabolite M+16(2) formation by LC-MS/MS(CID) analysis; assay type: ADME, cell-based, Hepatocyte
[27] = Drug metabolism in rat liver microsomes assessed as oxygenated metabolite M+16(1) formation by LC-MS/MS(CID) analysis; assay type: ADME, Microsome
[28] = Drug metabolism in rat hepatocytes assessed as oxygenated metabolite M+16(2) formation by LC-MS/MS(CID) analysis; assay type: ADME, cell-based, Hepatocyte
[29] = Drug metabolism in rat hepatocytes assessed as N-methyl-2-(3'-propoxy-5,5'-bi(1,2,4-triazin)-3-yloxy)ethanamine formation by LC-MS/MS(CID) analysis; assay type: ADME, cell-based, Hepatocyte
Cytochrome P450 1A2 = target: T1, Cytochrome P450 1A2 (Homo sapiens, UniProt P05177); test: Inhibition of CYP1A2 in human liver microsomes assessed as reduction in […] activity by . high-pressure liquid chromatography-tandem mass spectrometry; assay type: ADME
T1 sequence (P05177 whole entry): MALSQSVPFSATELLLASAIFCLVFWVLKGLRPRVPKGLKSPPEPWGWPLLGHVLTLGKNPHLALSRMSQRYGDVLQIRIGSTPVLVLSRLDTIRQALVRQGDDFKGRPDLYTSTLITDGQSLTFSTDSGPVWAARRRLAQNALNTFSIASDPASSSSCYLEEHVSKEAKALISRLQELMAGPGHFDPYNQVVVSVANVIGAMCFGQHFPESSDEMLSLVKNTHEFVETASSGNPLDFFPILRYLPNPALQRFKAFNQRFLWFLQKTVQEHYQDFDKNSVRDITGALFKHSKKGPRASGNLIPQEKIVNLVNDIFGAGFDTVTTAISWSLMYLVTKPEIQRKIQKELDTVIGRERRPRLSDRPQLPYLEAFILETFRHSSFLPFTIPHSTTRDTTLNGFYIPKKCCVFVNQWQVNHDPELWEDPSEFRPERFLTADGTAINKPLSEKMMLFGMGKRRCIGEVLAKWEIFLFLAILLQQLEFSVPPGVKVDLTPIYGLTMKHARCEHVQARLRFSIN

Cytochrome P450 3A4 = Cytochrome P450 3A4 (Homo sapiens, UniProt P08684); test: Inhibition of CYP3A4 in human liver microsomes assessed as reduction in midazolam 1-hydroxylase activity by . high-pressure liquid chromatography-tandem mass spectrometry; assay type: ADME
[30] = Drug metabolism in rat liver microsomes assessed as N-methyl-2-(3'-propoxy-5,5'-bi(1,2,4-triazin)-3-yloxy)ethanamine formation by LC-MS/MS(CID) analysis; assay type: ADME, Microsome
[31] = Intrinsic clearance in mouse hepatocytes assessed per million cells by UPLC-MS analysis; assay type: ADME, cell-based, Hepatocyte; conditions: read-out: CLH
[32] = Drug metabolism in Sprague-Dawley rat plasma assessed as M-69 metabolite formation at 10 mg/kg, po by high-resolution mass spectrometry; assay type: ADME, organism-based; conditions: in vivo
[33] = Drug metabolism in Sprague-Dawley rat urine assessed as M-32 metabolite formation at 3 mg/kg, iv by high-resolution mass spectrometry; assay type: ADME, organism-based; conditions: in vivo

Chain of Cytochrome P450 3A4 (P08684 whole entry): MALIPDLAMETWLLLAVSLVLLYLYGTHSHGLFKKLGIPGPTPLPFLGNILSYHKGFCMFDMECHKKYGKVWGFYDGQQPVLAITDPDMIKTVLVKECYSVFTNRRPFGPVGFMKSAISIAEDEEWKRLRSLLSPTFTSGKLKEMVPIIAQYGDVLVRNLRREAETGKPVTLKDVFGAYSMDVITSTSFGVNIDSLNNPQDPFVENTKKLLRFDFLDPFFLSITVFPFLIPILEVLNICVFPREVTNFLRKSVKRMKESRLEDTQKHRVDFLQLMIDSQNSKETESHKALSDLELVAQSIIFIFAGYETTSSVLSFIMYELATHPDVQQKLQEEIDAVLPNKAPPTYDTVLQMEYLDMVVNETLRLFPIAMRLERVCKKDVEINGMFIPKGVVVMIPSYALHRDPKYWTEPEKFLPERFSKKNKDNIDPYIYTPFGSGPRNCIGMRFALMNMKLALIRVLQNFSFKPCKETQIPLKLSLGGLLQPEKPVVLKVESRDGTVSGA

**Q.** With CCCOc1nncc(-c2cnnc(OCCN(C)C)n2)n1 as the compound, how does the EC50 (Plasmodium) read?
**A.** 1.2 µM

**Q.** And the Drug metabolism [1]?
**A.** Metabolite_Detected

**Q.** What about the bioavailability [2] of the same compound?
**A.** 10%

**Q.** And the fraction unbound at 6 h [3]?
**A.** 0.78

**Q.** And the microsomal CLint [4]?
**A.** 42 µL/min/mg

**Q.** And the Tmax [5]?
**A.** 60 min

**Q.** And the AUC(0-inf) [6]?
**A.** 0.36 µM·h

**Q.** And the Drug metabolism [7]?
**A.** Metabolite_Detected

**Q.** And the bioavailability [8]?
**A.** 7.49%

**Q.** And the metabolised at 4 h [9]?
**A.** 23%

**Q.** What about the Drug metabolism [10] of the same compound?
**A.** Metabolite_Detected

**Q.** And the Drug metabolism [11]?
**A.** Metabolite_Detected

**Q.** What about the clearance [12] of the same compound?
**A.** 205 mL/min/kg

**Q.** What about the Drug metabolism [13] of the same compound?
**A.** Metabolite_Detected

**Q.** And the Drug metabolism [14]?
**A.** Metabolite_Notdetected

**Q.** And the Drug metabolism [15]?
**A.** Metabolite_Detected

**Q.** What about the concentration at 6 h [16] of the same compound?
**A.** 150 ng/mL

**Q.** And the AUC(0-inf) [17]?
**A.** 0.44 µM·h

**Q.** What about the Drug metabolism [18] of the same compound?
**A.** Metabolite_Notdetected

**Q.** What about the clearance [19] of the same compound?
**A.** 406 mL/min/kg

**Q.** What about the Drug metabolism [20] of the same compound?
**A.** Metabolite_Detected

**Q.** What about the Drug metabolism [21] of the same compound?
**A.** Metabolite_Detected

**Q.** What about the Drug metabolism [22] of the same compound?
**A.** Metabolite_Detected

**Q.** And the hepatocyte CLint [23]?
**A.** 3.6 µL/min/1e6 cells

**Q.** And the Drug metabolism [24]?
**A.** Metabolite_Notdetected

**Q.** And the Tmax [25]?
**A.** 30 min

**Q.** And the Drug metabolism [26]?
**A.** Metabolite_Detected

**Q.** And the Drug metabolism [27]?
**A.** Metabolite_Detected

**Q.** And the Drug metabolism [28]?
**A.** Metabolite_Detected

**Q.** And the Drug metabolism [29]?
**A.** Metabolite_Detected

**Q.** What about the IC50 (Cytochrome P450 1A2) of the same compound?
**A.** > 20 µM

**Q.** What about the IC50 (Cytochrome P450 3A4) of the same compound?
**A.** > 20 µM

**Q.** What about the Drug metabolism [30] of the same compound?
**A.** Metabolite_Detected

**Q.** And the hepatocyte CLint [31]?
**A.** 3.7 µL/min/1e6 cells

**Q.** And the Drug metabolism [32]?
**A.** Metabolite_Detected

**Q.** And the Drug metabolism [33]?
**A.** Metabolite_Detected
